Reference: patent US12617813B2, “Glycosylated histone deacetylase inhibitors and methods of making and using the same” (Georgia Tech Research Corporation, priority 2020, dated 2026)

Columns and labels:
HDAC1 = HDAC1 (Homo sapiens, UniProt Q13547); experiment: HDAC inhibition, HDAC1; type: biochemical
HDAC6 = target: T1, HDAC6 (Homo sapiens, UniProt Q9UBN7); experiment: HDAC inhibition, HDAC6; type: biochemical
T1 sequence (Q9UBN7 1-1215): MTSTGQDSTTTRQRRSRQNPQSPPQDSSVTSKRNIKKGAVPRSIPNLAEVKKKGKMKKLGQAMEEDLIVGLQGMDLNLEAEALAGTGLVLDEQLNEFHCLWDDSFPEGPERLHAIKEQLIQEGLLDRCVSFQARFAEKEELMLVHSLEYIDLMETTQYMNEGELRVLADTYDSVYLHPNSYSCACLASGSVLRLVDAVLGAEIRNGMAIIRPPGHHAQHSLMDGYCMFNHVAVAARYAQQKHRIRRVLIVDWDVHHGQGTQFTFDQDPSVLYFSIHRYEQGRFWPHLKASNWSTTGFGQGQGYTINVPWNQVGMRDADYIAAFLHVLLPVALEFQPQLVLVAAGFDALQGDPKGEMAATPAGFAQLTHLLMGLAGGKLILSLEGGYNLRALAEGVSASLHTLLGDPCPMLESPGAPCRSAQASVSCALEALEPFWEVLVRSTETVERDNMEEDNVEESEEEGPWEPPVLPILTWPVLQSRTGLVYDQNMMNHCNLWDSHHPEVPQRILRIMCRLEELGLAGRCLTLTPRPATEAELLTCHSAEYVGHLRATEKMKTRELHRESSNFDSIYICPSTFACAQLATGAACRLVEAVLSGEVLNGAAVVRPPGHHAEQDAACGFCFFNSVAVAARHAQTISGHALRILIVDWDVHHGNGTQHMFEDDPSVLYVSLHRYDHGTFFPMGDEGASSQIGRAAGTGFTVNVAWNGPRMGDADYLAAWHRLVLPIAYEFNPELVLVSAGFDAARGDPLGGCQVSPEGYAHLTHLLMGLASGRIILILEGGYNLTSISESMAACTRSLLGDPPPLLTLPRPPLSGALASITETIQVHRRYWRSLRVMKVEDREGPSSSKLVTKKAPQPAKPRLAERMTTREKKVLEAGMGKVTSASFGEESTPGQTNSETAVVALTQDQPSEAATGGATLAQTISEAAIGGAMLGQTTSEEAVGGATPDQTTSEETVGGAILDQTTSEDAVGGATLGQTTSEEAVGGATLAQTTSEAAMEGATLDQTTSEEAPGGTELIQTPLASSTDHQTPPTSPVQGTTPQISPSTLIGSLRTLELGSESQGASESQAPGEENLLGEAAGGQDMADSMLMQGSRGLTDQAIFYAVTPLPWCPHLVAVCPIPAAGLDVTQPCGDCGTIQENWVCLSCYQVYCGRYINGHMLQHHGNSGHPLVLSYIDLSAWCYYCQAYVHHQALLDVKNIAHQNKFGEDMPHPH

[1] = system: acetylated tubulin and histone H4; experiment: Western blot of on-target effect (HDAC inhibition) in Hep-G2 cells; type: cell-based; conditions: Hep-G2, 1.25 and 2.5 μM, 5 h, Western blot (FIG. 1)
Experimental: SAHA was used as positive control while GAPDH was used to control for protein loading. (1a) Hep-G2 treated with DMSO or 0.1% DMSO solution of SAHA (1.25 μM), STR-V-114 (1.25 μM, 2.5 μM) and STR-V-53 (1.25 μM, 2.5 μM). (1b) Hep-G2 treated with DMSO or 0.1% DMSO solution of SAHA (0.5 μM, 1.25 μM) and STR-I-195 (1.25 μM, 2.5 μM). Cell were treated for 5 h before lysis. Quantifications of gel bands are shown below each gel.

Hep-G2 cell line = experiment: Apoptosis via caspase 3 activation (Western blot) in Hep-G2; type: cell-based; conditions: Hep-G2, 18 h; STR compounds 10 and 20 μM, SAHA 5 μM (FIG. 2)
Experimental: Actin was used to control for protein loading. Cells were treated with DMSO or 0.1% DMSO solution of SAHA (5 μM), STR-V-53 (10 and 20 μM), or STR-I-195 (10 and 20 μM) for 18 h. (a) Cropped gel image showing upregulation on cleaved caspase 3 (clv-caspase 3) relative to the DMSO control. (b) Quantification of relative levels of clv-caspase 3. (Bars show mean plus standard deviation; *P<0.0332; **P<0.0021; ***P<0.0002; ****P<[…]).

Vero cell line = experiment: Apoptosis via caspase 3 activation (Western blot) in Vero; type: cell-based; conditions: Vero (non-transformed model), 18 h; STR compounds 10 and 20 μM, SAHA 5 μM (FIG. 3)
Experimental: Actin was used to control for protein loading. Cells were treated with DMSO or 0.1% DMSO solution of SAHA (5 μM), STR-V-53 (10 and 20 μM), or STR-I-195 (10 and 20 μM) for 18 h. Quantification of gel bands are shown below the gel.

HDAC8 = target: T2, HDAC8 (Homo sapiens, UniProt Q9BY41); experiment: HDAC inhibition, HDAC8; type: biochemical
T2 sequence (Q9BY41 1-377): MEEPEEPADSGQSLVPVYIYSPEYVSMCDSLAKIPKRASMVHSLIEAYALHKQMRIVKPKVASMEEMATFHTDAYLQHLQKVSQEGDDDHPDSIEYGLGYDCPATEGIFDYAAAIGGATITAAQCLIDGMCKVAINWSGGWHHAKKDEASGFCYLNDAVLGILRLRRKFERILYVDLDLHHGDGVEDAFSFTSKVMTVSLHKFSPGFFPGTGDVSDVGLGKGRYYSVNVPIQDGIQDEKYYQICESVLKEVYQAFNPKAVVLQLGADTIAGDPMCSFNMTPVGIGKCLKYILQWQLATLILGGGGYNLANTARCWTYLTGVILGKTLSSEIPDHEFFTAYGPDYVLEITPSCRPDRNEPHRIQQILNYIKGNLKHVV

HDAC2 = HDAC2 (Homo sapiens, UniProt Q92769); experiment: HDAC inhibition, HDAC2; type: biochemical
Hep-G2 [2] = experiment: Cytotoxicity with GLUT2 blockage by Phloretin in Hep-G2; type: cell-based; conditions: Hep-G2 treated with Phloretin 24 h prior to incubation (FIG. 5)
Experimental: Hep-G2 and VERO were treated with Phloretin (Ph) for 24 h prior to incubation with STR-V-53 or SAHA. (a) Hep-G2 treated by STR-V-53 with or without Ph. (b) Hep-G2 treated by SAHA with or without Ph. (c) VERO treated by STR-V-53 with or without Ph. (d) VERO treated with SAHA with or without Ph.

Hep-G2 [3] = experiment: Cell cycle analysis in Hep-G2; type: cell-based; conditions: Hep-G2, 15 μM, 48 h (FIG. 4)
Experimental: Hep-G2 was cultured in all) cm petri dish until 80% confluence. The cell was serum starved overnight before drug treatment. Subsequently, cells were treated with 10 mL of 0.1% DMSO medium, 0.1% DMSO solution of SAHA (5 μM) or STR-V-53 (15 μM), respectively for 48 h. (a) The control group of Hep-G2 (1); SAHA (5 μM) treated group (2); and STR-V-53 (15 μM) treated group (3). […] (b) Cell distribution in each stage. (c) Analysis of the percentage cell population in cell cycle stages.

Chain of HDAC2 (Q92769 whole entry): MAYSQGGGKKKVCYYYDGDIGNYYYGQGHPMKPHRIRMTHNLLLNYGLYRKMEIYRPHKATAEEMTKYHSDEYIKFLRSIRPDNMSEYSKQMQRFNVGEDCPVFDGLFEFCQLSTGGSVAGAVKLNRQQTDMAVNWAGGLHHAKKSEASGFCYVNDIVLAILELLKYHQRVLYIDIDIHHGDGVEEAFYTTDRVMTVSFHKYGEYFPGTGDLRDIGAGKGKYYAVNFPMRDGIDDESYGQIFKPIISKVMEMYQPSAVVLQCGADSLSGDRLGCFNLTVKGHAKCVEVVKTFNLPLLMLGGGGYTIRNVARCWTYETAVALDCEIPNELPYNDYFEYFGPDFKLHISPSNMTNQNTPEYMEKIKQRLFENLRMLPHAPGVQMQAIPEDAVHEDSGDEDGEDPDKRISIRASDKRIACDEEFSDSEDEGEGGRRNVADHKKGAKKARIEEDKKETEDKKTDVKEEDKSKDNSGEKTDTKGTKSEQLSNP
Chain of HDAC1 (Q13547 whole entry): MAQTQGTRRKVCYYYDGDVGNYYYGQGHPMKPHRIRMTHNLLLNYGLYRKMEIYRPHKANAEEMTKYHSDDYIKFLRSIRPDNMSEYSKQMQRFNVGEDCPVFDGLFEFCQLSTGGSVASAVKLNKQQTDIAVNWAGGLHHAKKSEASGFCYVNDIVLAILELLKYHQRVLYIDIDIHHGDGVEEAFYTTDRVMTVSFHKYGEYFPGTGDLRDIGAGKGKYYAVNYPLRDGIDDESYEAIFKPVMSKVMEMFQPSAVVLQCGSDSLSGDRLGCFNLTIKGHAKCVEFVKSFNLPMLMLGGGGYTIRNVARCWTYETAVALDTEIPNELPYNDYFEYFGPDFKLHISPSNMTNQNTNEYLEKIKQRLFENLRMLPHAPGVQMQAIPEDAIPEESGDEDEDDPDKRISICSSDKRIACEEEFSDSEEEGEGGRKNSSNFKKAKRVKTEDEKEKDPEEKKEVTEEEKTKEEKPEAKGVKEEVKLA

Row | IC50 (HDAC1) [nM] | IC50 (HDAC6) [nM] | IC50 (HDAC8) [nM] | IC50 (HDAC2) [nM] | Structure (SMILES) | on-target effect (HDAC inhibition): acetylated tubulin and histone H4 levels [1] | apoptosis via caspase 3 activation (clv-caspase 3) (Hep-G2 cell line) | apoptosis (clv-caspase 3) (Vero cell line) | effect of GLUT2 blockage on cytotoxicity (Hep-G2 [2]) | effect on cell cycle (Hep-G2 [3])
1 | 14.6 | 2.51 | 464 | 29.1 | O=C(CCCCCCn1cc(-c2ccc(OC3O[C@H](CO)[C@@H](O)[C@H](O)C3O)cc2)nn1)NO (stereo in doubt) [STR-I-195, N-hydroxy-7-(4-(4-(((2S,3R,4S,5S,6R)-3,4,5-trihydroxy-6-(hydroxymethyl)-tetrahydro-2H-pyran-2-yl)oxy)phenyl)-1H-1,2,3-triazol-1-yl)heptanamide] | upregulation of acetylated tubulin and histone H4 | induced apoptosis | did not induce apoptosis | – | –
2 | – | – | – | – | O=C(CCCCCCC(=O)Nc1ccccc1)NO [SAHA, reference compound] | – | induced apoptosis | induced apoptosis | – | –
3 | 20.3 | 4.5 | 2130 | 61.5 | O=C(CCCCCCn1cc(-c2ccc3cc(O[C@H]4O[C@H](CO)[C@@H](O)[C@H](O)[C@H]4O)ccc3c2)nn1)NO [STR-V-114, N-hydroxy-7-(4-(6-(((2R,3R,4S,5S,6R)-3,4,5-trihydroxy-6-(hydroxymethyl)-tetrahydro-211-pyran-2-yl)oxy)naphthalen-2-yl)-1H-1,2,3-triazol-1-yl)heptanamide] | upregulation of acetylated tubulin and histone H4 | – | – | – | –

Row | Structure (SMILES) | IC50 (HDAC1) [nM] | IC50 (HDAC6) [nM] | IC50 (HDAC8) [nM] | IC50 (HDAC2) [nM] | on-target effect (HDAC inhibition): acetylated tubulin and histone H4 levels [1] | apoptosis via caspase 3 activation (clv-caspase 3) (Hep-G2 cell line) | apoptosis (clv-caspase 3) (Vero cell line) | effect of GLUT2 blockage on cytotoxicity (Hep-G2 [2]) | effect on cell cycle (Hep-G2 [3])
4 | O=C(CCCCCCn1cc(-c2ccc(O[C@H]3O[C@H](CO)[C@@H](O)[C@H](O)[C@H]3O)cc2)nn1)NO [STR-V-53] | 24.3 | 3.43 | 843 | 60.1 | upregulation of acetylated tubulin and histone H4 | induced apoptosis | did not induce apoptosis | attenuates the cytotoxicity | cell cycle arrest
